From US12589160B2, “Peptide-derived therapeutics targeting KDM5C for the treatment of cancer” (NUVOBIO CORPORATION, priority 2019, dated 2026)

Assays:
HCT 116 cells [1] = assay: Cell viability, resazurin reduction assay; format: cell-based; details: for loss of cell viability: HCT 116, 10 μM, cell penetrating peptide by itself
Method: (§1) FIG. 7. Cellular EP4 inhibitor delivery and viability. (A) Diagrammatic representation of EP4 inhibitor peptide showing N-terminally tagged 6-carboxyfluorescein and C-terminally tagged TAT cell delivery peptide. (B) Immunofluorescence microscopy showing internalization of EP4-TAT peptide (shown in green) to HCT 116 cells imaged 24 hr post-treatment with inhibitor. (C) Cell viability following 10 μM treatment of EP4 peptide conjugated to cell penetrating peptides, TAT, PR9 and CPP.
Cell viability was measured using the Resazurin reduction assay which indirectly quantifies living cells through the metabolically active reduction of resazurin to fluorescent resorufin. This assay allows to maintain cells viability and, therefore, to monitor cell growth with time. Exponentially growing cells were seeded into 96-well plates at the density of 2.0×10^4 cells/mL and incubated overnight. The media was replaced with fresh media prior to inhibitor treatment. Cells were treated with […] of inhibitor peptide for 24 hr. The inhibitor peptide was diluted in the cell culture media (DMEM −/−) in the absence of serum from a 5 mM stock. All the treated cells were compared to the control (TAT alone peptide with equivalent quantity of DMSO) which were considered as 100% viable. One set of wells also prepared with medium only for background subtracting and instrument gain adjustment. The experiments were carried out in triplicate and expressed as mean±SD. A 10% resazurin solution (0.15 mg/ml stock dissolved in PBS, filter sterilized and stored protected from light at 4° C.) was then added to each well and incubated for 2 hr. The fluorescence was recorded using a multiwell plate reader (Perkin Elmer) at Ex. 560 nm and Em. 610 nm.
The cell penetrating peptide tagged EP4 inhibitors are then tested for loss of cell viability on colorectal carcinoma HCT 116 cell line at a 10 μM dose (FIG. 7C).

[2] = test system: H3K4me3 levels in HCT 116 cells; assay: Histone H3K4me3 status by western blot of histone extracts; format: cell-based; details: for global H3K4me3 levels: HCT 116
Method: FIG. 9. Comparison of KDM5 inhibitors, EP4-TAT and CPI-455. […] (B) Relative H3K4me3 levels were monitored in histone extracts from HCT 116 cells.
The EP4-TAT inhibitor from all the above experiments were tested for histone methylation status in HCT 116 cells. 3×10^6 cells were plated in 10 cm dish and incubated overnight. Cells were then treated with the inhibitors at various concentrations (0.001 to 15 μM). Cells (5×10^6 cells/mL), 24 hr of post dosing, were collected in 15 mL falcon tube and centrifuged at 300×g for 10 min. The supernatant was discarded and the cells are washed with iced cold PBS. The cell pellet is flash-frozen in liquid nitrogen and stored at −80° C. Histone isolation is done using standard protocol. To summarize, cells were re-suspended in 1 mL hypotonic lysis buffer (10 mM Tris-HCl pH 8, 1 mM KCl, 1.5 mM MgCl2 and 1 mM DTT) containing protease inhibitor. The cells were transferred to 1.5 mL tube and incubated for 30 min on rotor at 4° C. to promote hypotonic swelling and lysis. The intact nuclei are collected by centrifugation at 10,000×g for 10 min in a cooled tabletop centrifuge. The supernatant is entirely discarded and pellets were re-suspended completely in 600 μL 0.4N H2SO4 and incubated overnight on rotor at 4° C. The nuclear debris were removed by centrifugation at 16,000×g for 10 min. The supernatant containing the histones were transferred to a fresh 1.5 mL tube and precipitated by adding 195 μL TCA (33%) drop by drop. The reaction is incubated at 4° C. overnight under rotation. The histones were pelleted by centrifugation at 16,000×g for 10 min. After complete removal of the supernatant carefully, the histone pellets were washed with ice-cold acetone to remove the left-over acids without disturbing the pellet. Finally, the pellets were air dried for 30 min at room temperature. The histone pellets were dissolved in 100 μL milliQ water and stored frozen at −20° C. Samples of 1, 3 and 5 μL of histones were separated on 15% SDS-PAGE gel and stained with Coomassie Brilliant Blue and characterized on the quality and concentration of the histone. The locations of the linker histone H1 and the core histones H3, H2B, H2A and H4 were noted.
For western blot, of total of 1 μL of histones were separated on 15% SDS-PAGE and transferred overnight at 15V on PVDF membrane. Following blocking with 5% nonfat dry milk in 1×TBST for 1 hr, the membrane containing histones lanes treated with inhibitor, were probed with H3K4Me3 (Abcam) primary antibody (1:2500) in 1×PBST. Both the membranes were incubated overnight at 4° C. under rotation. […] Histone proteins were detected by Supersignal™ West Pico PLUS Chemiluminescent substrate (ThermoFisher Scientific) using the Chemidoc XRS+ imaging system (BioRad). […]

HCT 116 cells [3] = assay: Internalization of FITC-labelled peptides (fluorescence microscopy); format: cell-based; details: HCT 116, 10 μM, 24 hr
Method: as §1
To evaluate the internalization of FITC-labelled peptides, exponentially growing HCT 116 cells were seeded on 6 well plate at a density of 2×10^5 cells per well and incubated overnight. After overnight incubation, the media (DMEM with penstrep and 10% FBS) was replaced with fresh media supplemented with 10 μM FITC-labelled inhibitor peptides. Following the incubation (24 hr), cells were washed three times with ice cold PBS to remove the excess extracellular complexes. Cells were then stained with Hoechst dye (1:2000 dilution from 10 mg/mL stock in PBS) directly adding sufficient staining solution to the well. Cells were incubated for 10 min with the dye, protected from light. The staining solution is discarded and the cells were washed 3 times with PBS and imaged directly under fluorescent microscope.
Our EP4 KDM5C inhibitor peptide were tested for a decrease in cell viability. […]

HCT 116 cells [4] = assay: Flow cytometry, PI staining (subG1 / apoptosis); format: cell-based; details: HCT 116, 2 μM
Method: FIG. 8. Global cell cycle distribution in EP4-TAT treated HCT 116 cells. EP4-TAT increases global H3K4me3 levels in HCT 116 cells. (A) Two-parameter flow cytometric analysis of BrdU incorporation and DNA content was performed following a 24 hr exposure of 2 μM and 5 μM EP4-TAT to HCT 116 cells. (B) The proportion of propidium iodine stained cells were represented in each phase of the cell cycle cell cycle and (C) dose-response correlation of BrdU positive cells were represented. These values are expressed relative to untreated controls. Each value in B, C represents the mean (+/−SEM) determined from 3 independent experiments.
A total of 0.3×10^6 HCT 116 cells were plated in 6 well-plate and incubated overnight. Cells were treated with the inhibitor, DMSO and TAT alone controls. For each condition, approximately 1×10^6 HCT 116 cells were collected along with the floating cells in the media by centrifugation at 300×g for 10 min. The cells were then washed with 5 mL of ice-cold PBS and re-suspended in 0.5 mL of ice-cold PBS. […] The PI-treated cells were incubated at 37° C. for 30 min and then analyzed by a flow cytometry (BD Accuri™ C6 Plus). […]
To determine whether loss in cell viability was associated with increased apoptosis, HCT 116 cells were treated with 2 μM of EP4-TAT and analyzed by PI staining.

NCI60 cancer cell lines = assay: NCI60 cancer panel screen (SRB staining); format: cell-based; details: 48 h, normalized to TAT-alone; SNB-75, A498, RXF393, UO-31, HOP-92, NCI-226, EKVX
Method: FIG. 10. NCI60 cancer panel screen of EP4-TAT. EP4-TAT and TAT-alone peptides were sent to the National Cancer Institute—Developmental Therapeutics program for screening effect on cell growth on the NCI60 cancer panel. Cell growth was monitored post-treatment with peptide in a dose-responsive manner (n=4). EP4-TAT effects were normalized to TAT-alone effects to control for delivery peptide. Following drug addition, the plates were incubated for an additional 48 hours at 37° C., 5% CO2, 95% air, and 100% relative humidity. Cell growth was monitored by Sulforhodamine B (SRB) staining. GI50 values are defined at the concentration of EP4-TAT that decreased cell growth by 50%.
Following the receipt at the NCI, cell-active EP4-TAT was be tested for its effects on cell viability in a dose-responsive manner in the complete panel. The effect of EP4-TAT on cell viability was carried out using Sulforhodamine B (SRB) staining in all 60 cell lines (n=4). Using several measurements [time zero (Tz), control growth (C), and growth at the five inhibitor concentrations (Ti)], the percentage growth will be calculated at each inhibition concentration. […]

KDM5 = details: given as 'in vivo'; Vinogradova et al., 2016; read-out: IC50 of KDM5 inhibition; cited from earlier work

RRWRRWRRWRR [CPP, cell penetrating peptide, chemically synthesized, cationic]
loss of cell viability (HCT 116 cells [1]): 50%

TEDSKTHHH(SEQ ID NO: 4){6-aminohexanoic acid}GRKKRRQRRRPPQ(SEQ ID NO: 45) (TEDSKTHHHGRKKRRQRRRPPQ) [EP4-TAT]
loss of cell viability (comparison of cell penetrating peptide tags) (HCT 116 cells [1]; HCT 116, 10 μM dose): maximum and consistent loss of cell viability
global H3K4me3 levels [2]: increase global H3K4me3 levels
demethylation of histone H3K4 tri-methylation ([2]; HCT 116, 25 nM): inhibited
cellular KDM5C inhibition compared with CPI-455 ([2]; HCT 116, relative H3K4me3 levels): more effective
cellular internalization (HCT 116 cells [3]): internalization
percentage of subG1 peak (HCT 116 cells [4]): 52.8%
growth inhibitory (GI50) effect (NCI60 cancer cell lines): growth inhibitory (GI50) effect in 7 lines

FFLIPKGRRRRRRRRR [PR9]
loss of cell viability (HCT 116 cells [1]): 30%

CPI-455 [reference compound]
global H3K4me3 levels [2]: increase global H3K4me3 levels
IC50 (KDM5): ~25 µM
